These results are taken from BindingDB's records for doi:10.1016/j.bmcl.2010.12.114 (Ligand Pharmaceuticals, 2011).

A short description of this assay: Inhibition of human CXCR3 by chemotaxis assay.

For `C[C@H]1CN(c2ncc(C(=O)NCc3ccc(F)c(F)c3)cc2Cl)CCN1C1CCN(Cc2ccc(Cl)cc2)CC1` [(S)-5-chloro-6-(4-(1-(4-chlorobenzyl)piperidin-4-yl)-3-methylpiperazin-1-yl)-N-(3,4-difluorobenzyl)nicotinamide], the IC50 came out at 23 nM.

Broadly, the IC50 is the concentration needed to halve the response being measured.
